Assay [1] has as its target human Cereblon WT GST-tagged protein (Homo sapiens (Human), UniProt Q96SW2). The assay is described as follows: CRBN-binding affinity, HTRF (CEREBLON BINDING kit, CISBIO). The settings on record: HTRF inhibitory activity. In a few lines:
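HTRF competition format: test compound displaces Thalidomide-Red from GST-tagged human Cereblon WT, detected with a Eu-labelled anti-GST antibody. Percent CRBN binding inhibition was derived from the 620 nm signal, normalized to solvent-control and protein-free blank wells.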
On the technique in general: In TR-FRET formats the signal depends on donor and acceptor labels being close together.

The target of the next assay is IKZF1 (Homo sapiens (Human), UniProt Q13422+Q96SW2). In words: Western blot, substrate protein expression in hPBMC: IKZF1. The settings on record: hPBMC, compound 500 nM, 24 hours, Western blot. Type of assay: cell-based. The procedure, abridged: (§1)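 hPBMC, 1×10^6 cells/mL, 24 h compound exposure; RIPA lysis, BCA protein assay, SDS-PAGE, NC membrane immunoblot. Densitometry vs internal control → % protein remaining; degradation % = 100% − remaining; DC50 = conc. at 50% of DMSO band signal.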
Chain of IKZF1 (Q13422 whole entry): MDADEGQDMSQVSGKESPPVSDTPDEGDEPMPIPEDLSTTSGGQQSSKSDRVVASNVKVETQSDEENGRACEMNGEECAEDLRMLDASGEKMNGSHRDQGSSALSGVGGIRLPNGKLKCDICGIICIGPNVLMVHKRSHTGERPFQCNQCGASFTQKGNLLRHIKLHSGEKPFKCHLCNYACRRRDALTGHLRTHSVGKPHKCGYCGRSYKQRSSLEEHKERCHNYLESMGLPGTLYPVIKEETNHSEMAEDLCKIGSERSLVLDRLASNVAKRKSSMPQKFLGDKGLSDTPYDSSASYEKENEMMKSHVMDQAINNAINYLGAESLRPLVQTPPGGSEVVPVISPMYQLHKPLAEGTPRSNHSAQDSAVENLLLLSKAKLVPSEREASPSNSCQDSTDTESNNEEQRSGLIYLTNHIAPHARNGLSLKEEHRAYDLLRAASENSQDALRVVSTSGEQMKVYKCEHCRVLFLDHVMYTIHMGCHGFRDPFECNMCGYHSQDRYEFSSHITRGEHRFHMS
Chain of IKZF1 (Q96SW2 whole entry): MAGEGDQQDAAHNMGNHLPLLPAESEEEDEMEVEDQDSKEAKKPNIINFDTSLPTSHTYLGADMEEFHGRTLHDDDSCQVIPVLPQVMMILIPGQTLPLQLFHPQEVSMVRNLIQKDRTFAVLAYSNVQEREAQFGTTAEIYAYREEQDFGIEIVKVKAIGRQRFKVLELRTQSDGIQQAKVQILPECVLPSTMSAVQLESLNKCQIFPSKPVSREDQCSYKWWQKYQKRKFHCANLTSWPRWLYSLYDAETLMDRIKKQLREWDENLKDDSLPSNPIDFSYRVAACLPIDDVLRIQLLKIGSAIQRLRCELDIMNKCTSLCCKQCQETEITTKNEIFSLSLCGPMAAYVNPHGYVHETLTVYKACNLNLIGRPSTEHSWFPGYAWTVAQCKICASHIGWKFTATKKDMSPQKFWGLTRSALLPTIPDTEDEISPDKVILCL
Chain of IKZF1 (Q16531 whole entry partner): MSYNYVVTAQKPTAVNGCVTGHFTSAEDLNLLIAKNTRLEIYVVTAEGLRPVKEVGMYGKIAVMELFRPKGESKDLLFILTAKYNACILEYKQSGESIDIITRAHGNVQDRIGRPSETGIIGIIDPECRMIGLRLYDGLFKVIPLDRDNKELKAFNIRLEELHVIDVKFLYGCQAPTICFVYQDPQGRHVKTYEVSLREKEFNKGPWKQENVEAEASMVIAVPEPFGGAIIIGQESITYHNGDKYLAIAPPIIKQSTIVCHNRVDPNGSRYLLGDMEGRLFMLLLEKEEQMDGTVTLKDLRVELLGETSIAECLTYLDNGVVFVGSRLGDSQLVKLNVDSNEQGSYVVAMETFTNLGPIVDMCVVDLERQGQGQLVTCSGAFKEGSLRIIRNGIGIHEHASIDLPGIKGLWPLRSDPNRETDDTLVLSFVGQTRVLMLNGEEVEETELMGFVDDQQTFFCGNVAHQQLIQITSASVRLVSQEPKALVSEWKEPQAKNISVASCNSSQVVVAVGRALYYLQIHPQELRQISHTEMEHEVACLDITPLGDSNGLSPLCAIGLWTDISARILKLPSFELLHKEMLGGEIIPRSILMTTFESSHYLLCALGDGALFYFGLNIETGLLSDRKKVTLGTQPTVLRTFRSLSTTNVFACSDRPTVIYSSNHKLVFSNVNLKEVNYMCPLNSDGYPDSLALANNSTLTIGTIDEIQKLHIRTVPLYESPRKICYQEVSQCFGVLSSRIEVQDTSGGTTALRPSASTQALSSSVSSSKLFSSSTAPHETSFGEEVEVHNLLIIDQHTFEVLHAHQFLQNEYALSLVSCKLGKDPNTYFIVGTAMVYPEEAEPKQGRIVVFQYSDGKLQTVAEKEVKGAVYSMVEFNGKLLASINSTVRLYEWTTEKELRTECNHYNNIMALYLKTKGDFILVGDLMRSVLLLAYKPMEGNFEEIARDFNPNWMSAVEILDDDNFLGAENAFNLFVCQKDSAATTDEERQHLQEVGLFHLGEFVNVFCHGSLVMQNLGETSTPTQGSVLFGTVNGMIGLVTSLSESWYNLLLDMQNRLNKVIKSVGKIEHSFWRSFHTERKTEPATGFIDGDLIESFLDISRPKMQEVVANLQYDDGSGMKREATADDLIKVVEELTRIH
(In western blotting, separated proteins are transferred to a membrane and probed.)

A further assay concerns the target IKZF3 (Homo sapiens (Human), UniProt Q96SW2+Q9UKT9). In words: Western blot, substrate protein expression in hPBMC: IKZF3. Type of assay: cell-based. Particulars: hPBMC, compound 500 nM, 24 hours, Western blot. In a few lines:
as §1

The target in another assay is GSPT1 (Homo sapiens (Human), UniProt P15170+Q96SW2). In words: Western blot, substrate protein expression in hPBMC: GSPT1. The settings on record: hPBMC, compound 500 nM, 24 hours, Western blot. It is filed as cell-based. The procedure, abridged: as §1
Chain of GSPT1 (P15170 whole entry): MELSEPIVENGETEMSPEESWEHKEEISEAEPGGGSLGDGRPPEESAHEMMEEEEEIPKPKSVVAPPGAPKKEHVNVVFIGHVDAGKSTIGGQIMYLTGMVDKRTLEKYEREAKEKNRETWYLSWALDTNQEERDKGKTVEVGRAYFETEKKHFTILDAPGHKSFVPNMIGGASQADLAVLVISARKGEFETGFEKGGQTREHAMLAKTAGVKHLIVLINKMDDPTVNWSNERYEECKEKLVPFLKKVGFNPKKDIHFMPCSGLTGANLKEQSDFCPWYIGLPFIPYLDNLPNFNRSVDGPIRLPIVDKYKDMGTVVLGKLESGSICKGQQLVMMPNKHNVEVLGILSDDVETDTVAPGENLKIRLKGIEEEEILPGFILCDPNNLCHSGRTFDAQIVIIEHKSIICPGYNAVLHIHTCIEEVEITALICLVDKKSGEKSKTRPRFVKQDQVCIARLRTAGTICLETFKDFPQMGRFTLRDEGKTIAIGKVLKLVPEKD
Chain of GSPT1 (Q96SW2 whole entry): as the sequence (Q96SW2 whole entry) above
Chain of GSPT1 (Q16531 whole entry partner): as the sequence (Q16531 whole entry partner) above
In assay [2] the test system is H146 cells (human small cell lung carcinoma cells). The assay is described as follows: Tumor cell proliferation inhibition, CCK-8. It is filed as cell-based. The settings on record: NCI-H146, H146 cells, CCK-8, read-out: inhibitory activity (IC50, nM) H146. How it is done:
(§2) The tumor cells used herein were cultured in a cell culture medium listed in table 2 at 37° C. in an incubator with 5% CO2. Prior to experimentation, all cells used were correctly identified by STR profiling, and tested negative for mycoplasma through routine screenings.
(§3) IC50 values of the compounds of the present disclosure (including the compounds in Table 1 and the Examples 1-305 compounds) were measured using the Meilun Cell Counting Kit-8 kit from Dalian Meilun Biotech Co., Ltd. Assay details are as follows: tumor cells were seeded in a 96-well plate at a density listed in Table 5. After 24 h, 100 μL of the inoculated cells were treated with 0.5 μL of the compounds of the present disclosure (including the compounds in Table 1 and the Examples 1-305 compounds) at 10 different successively decreasing concentrations (starting at the highest concentration of 10 μM; 5-fold serial dilutions). After the cells were treated with the compounds of the present disclosure for a period of time, the cell viability detection reagent was added to the culture medium for cell viability assessment according to the instructions provided with the CCK-8 kit. […] The growth inhibition of the compounds of the present disclosure on cells was plotted by Prism Graphpad software, and the IC50 values of the compounds of the present disclosure were calculated therefrom.

The test system of assay [3] is MDA-MB-231 cells (human breast adenocarcinoma cells). In words: Tumor cell proliferation inhibition, CCK-8. It is filed as cell-based. Particulars: MDA-MB-231 cells, CCK-8, read-out: inhibitory activity (IC50, nM) MDA-MB-231. The protocol:
as §2, §3

Assay [4] has as its system MM.1S cells (human multiple myeloma cells). In words: Tumor cell proliferation inhibition, CCK-8. Type of assay: cell-based. Particulars: MM1.S, MM.1S cells, CCK-8, read-out: inhibitory activity (IC50, nM) MM.1S. The protocol: as §2, §3
Assay [5] relates to TMD8 cells (human diffuse large B-cell lymphoma cells). In words: Tumor cell proliferation inhibition, CCK-8. It is filed as cell-based. Particulars: TMD8 cells, CCK-8, read-out: inhibitory activity (IC50, nM) TMD8. How it is done:
as §2, §3

Chain of human Cereblon WT GST-tagged protein (Q96SW2 whole entry): as the sequence (Q96SW2 whole entry) above
Chain of IKZF3 (Q9UKT9 whole entry): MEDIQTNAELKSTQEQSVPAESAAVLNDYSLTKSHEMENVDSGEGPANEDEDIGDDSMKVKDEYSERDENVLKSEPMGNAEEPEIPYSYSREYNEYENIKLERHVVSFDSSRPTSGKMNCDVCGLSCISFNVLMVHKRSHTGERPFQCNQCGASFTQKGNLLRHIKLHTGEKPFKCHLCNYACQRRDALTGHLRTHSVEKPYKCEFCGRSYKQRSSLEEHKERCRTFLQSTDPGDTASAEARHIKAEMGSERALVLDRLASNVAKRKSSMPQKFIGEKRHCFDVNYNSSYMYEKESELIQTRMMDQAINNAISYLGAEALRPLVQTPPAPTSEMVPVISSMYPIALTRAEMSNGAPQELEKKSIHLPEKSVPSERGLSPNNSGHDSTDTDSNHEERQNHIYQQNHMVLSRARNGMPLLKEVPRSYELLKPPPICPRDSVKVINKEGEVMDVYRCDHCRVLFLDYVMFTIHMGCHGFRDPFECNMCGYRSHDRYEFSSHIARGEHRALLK
Chain of IKZF3 (Q96SW2 whole entry): as the sequence (Q96SW2 whole entry) above
Chain of IKZF3 (Q16531 whole entry partner): as the sequence (Q16531 whole entry partner) above

A word on the IC50: it is the midpoint of a concentration-inhibition curve. Regarding `O=C1CCC(N2Cc3c(ccc(CN4CCN(C(c5ccccc5F)c5ccccc5F)CC4)c3F)C2=O)C(=O)N1` (stereo not shown) [GT-06085, 3-(5-((4-(bis(2-fluorophenyl)methyl)piperazin-1-yl)methyl)-4-fluoro-1-oxoisoindolin-2-yl)piperidine-2,6-dione], the IC50 in assay [1] lay in the range of 500 to 1000 nM; in assay [2], 10 to 50 nM; in assay [3], 10 to 50 nM; in assay [4] it was 1 to 10 nM; in assay [5], 10 to 50 nM. Further, the “substrate protein remaining % IKZF1” value at IKZF1 was “A (A represents 0% ≤ substrate protein remaining % ≤ 50%)”. The “substrate protein remaining % IKZF3” value on IKZF3 is “A (A represents 0% ≤ substrate protein remaining % ≤ 50%)”. In addition, the “substrate protein remaining % GSPT1” value on GSPT1 was “A (A represents 0% ≤ substrate protein remaining % ≤ 50%)”.

Consider `O=C1CCC(N2Cc3cc(CN4CCN(C(c5ccccc5F)c5ccccc5F)CC4)c(F)cc3C2=O)C(=O)N1` (stereo not shown) [GT-06086, 3-(5-((4-(bis(2-fluorophenyl)methyl)piperazin-1-yl)methyl)-6-fluoro-1-oxoisoindolin-2-yl)piperidine-2,6-dione], for which the IC50 fell in the range of 500 to 1000 nM in assay [1]; 10 to 50 nM in assay [2]; 10 to 50 nM in assay [3]; 1 to 10 nM in assay [4]; 10 to 50 nM in assay [5]. On IKZF1, the “substrate protein remaining % IKZF1” value was “A (A represents 0% ≤ substrate protein remaining % ≤ 50%)”. The “substrate protein remaining % IKZF3” value on IKZF3 was “A (A represents 0% ≤ substrate protein remaining % ≤ 50%)”. Also, the “substrate protein remaining % GSPT1” value on GSPT1 was “A (A represents 0% ≤ substrate protein remaining % ≤ 50%)”.

`O=C1CCC(N2Cc3cc(CN4CCN(C(c5ccccc5F)c5ccccc5F)CC4)cc(F)c3C2=O)C(=O)N1` (stereo not shown) [GT-06087, 3-(5-((4-(bis(2-fluorophenyl)methyl)piperazin-1-yl)methyl)-7-fluoro-1-oxoisoindolin-2-yl)piperidine-2,6-dione]: the IC50 in assay [1] is less than 500 nM; in assay [2], 50 to 100 nM; in assay [3] it was 100 to 500 nM; in assay [4], 10 to 50 nM; in assay [5] it was 100 to 500 nM. Besides, the “substrate protein remaining % IKZF1” value on IKZF1 is recorded as “B (B represents substrate protein remaining % > 50%)”. Further, the “substrate protein remaining % IKZF3” value at IKZF3 is “B (B represents substrate protein remaining % > 50%)”. Moreover, the “substrate protein remaining % GSPT1” value at GSPT1 is on record as “A (A represents 0% ≤ substrate protein remaining % ≤ 50%)”.

Regarding `O=C1CCC(N2Cc3cc(C(=O)N4CCN(C(c5cccc(F)c5)c5cccc(F)c5)CC4)ccc3C2=O)C(=O)N1` (stereo not shown) [GT-06146, 3-(5-(4-(bis(3-fluorophenyl)methyl)piperazine-1-carbonyl)-1-oxoisoindolin-2-yl)piperidine-2,6-dione], the IC50 in assay [1] is less than 500 nM; in assay [2] it was 100 to 500 nM; in assay [3], 100 to 500 nM; in assay [4], 10 to 50 nM; in assay [5], 500 to 1000 nM. Further, at IKZF1, the “substrate protein remaining % IKZF1” value is on record as “A (A represents 0% ≤ substrate protein remaining % ≤ 50%)”. Further, on IKZF3, the “substrate protein remaining % IKZF3” value is reported as “A (A represents 0% ≤ substrate protein remaining % ≤ 50%)”. At GSPT1, the “substrate protein remaining % GSPT1” value is “A (A represents 0% ≤ substrate protein remaining % ≤ 50%)”.

Turning to `O=C1CCC(N2Cc3cc(CN4CCN(C(c5cc(F)cc(F)c5)c5cc(F)cc(F)c5)CC4)ccc3C2=O)C(=O)N1` (stereo not shown) [GT-06387, 3-(5-((4-(bis(3,5-difluorophenyl)methyl)piperazin-1-yl)methyl)-1-oxoisoindolin-2-yl)piperidine-2,6-dione], the IC50 in assay [1] was 1000 to 1900 nM; in assay [2] it was 1 to 10 nM; in assay [3], 1 to 10 nM; in assay [4], less than 1 nM; in assay [5] it was 1 to 10 nM. Moreover, the “substrate protein remaining % IKZF1” value at IKZF1 is recorded as “B (B represents substrate protein remaining % > 50%)”. Besides, the “substrate protein remaining % IKZF3” value at IKZF3 is “A (A represents 0% ≤ substrate protein remaining % ≤ 50%)”. In addition, the “substrate protein remaining % GSPT1” value at GSPT1 is reported as “A (A represents 0% ≤ substrate protein remaining % ≤ 50%)”.

(Values after patent US20250320193A1, “OXOISOINDOLINYL SUBSTITUTED PIPERIDINEDIONE DERIVATIVE AND USE THEREOF” (GLUETACS THERAPEUTICS (SHANGHAI) CO., LTD., priority 2022, published 2025).)
